Measurements reported in patent publication US10259810B2, “N-sulfonylated pyrazolo[3,4-b]pyridin-6-carboxamides and method of use” (AbbVie S.à.r.l., priority 2015, dated 2019).
Like-named read-outs stand apart in the source and are kept apart here.

Biological target: T1, ΔF508-CFTR (Homo sapiens, UniProt P13569, DEL508-508)
T1 construct: host or cells: CFBE41o-, doxycycline-inducible
Experiment: CFTR cell surface levels using HRP-tagged ΔF508-CFTR expressing CFBE cells, in the presence of a co-corrector
Assay type: cell-based
From the text: Measuring CFTR Cell Surface Levels Using HRP-Tagged ΔF508-CFTR Expressing CFBE Cells
The HRP-tagged ΔF508-CFTR cell assay measures the expression of CFTR-ΔF508 at the plasma membrane. CFTR-ΔF508 has a folding defect leading to absence of protein at the plasma membrane. This assay is used to evaluate the capacity of compounds to increase the expression of CFTR-ΔF508 at the plasma membrane. The CFTR-ΔF508 is tagged with HRP (horse radish peroxidase enzyme) within the ECL4 (Extracellular loop 4) of CFTR (Phuan, P.-W. et al. Synergy-based small-molecule screen using a human lung epithelial cell line yields ΔF508-CFTR correctors that augment VX-809 maximal efficacy. Mol. Pharmacol. 86, 42-51 (2014)). When HRP-tagged ΔF508-CFTR is present at the plasma membrane, the HRP enzyme activity can be measured. The amount of CFTR-ΔF508 that can be rescued to the plasma membrane is correlated with the amount of functional enzyme that can be measured.
There are several ways to measure the capacity of compounds to rescue CFTR-ΔF508 to the plasma membrane; either compounds are evaluated on their own and the impact on plasma membrane levels is measured or compounds are evaluated in combination with a co-corrector, i.e. a compound that rescues CFTR-ΔF508 to the plasma membrane but rescue can be enhanced by addition of compounds due to a complementary mode of action.
Activity of Compounds in Combination with Co-Corrector:
For this purpose doxycycline-inducible ΔF508-CFTR-HRP expressing CFBE4lo− cells (obtained from Gergely Lukacs, McGill University) were maintained in MEM (Minimum Essential Medium, Gibco; 31095) supplemented with 10% fetal bovine serum (Hyclone; SV30160.03) under puromycin (3 μg/mL) and G418 selection (0.2 mg/mL). For compound testing, cells were seeded at 4000 cells/well in white 384-well plates (Greiner; 781080) in 50 μL of medium containing 0.5 μg/mL doxycycline and incubated for 68 hours at 37° C., 5% CO2. On day four, 10 μL of test compounds diluted in PBS (phosphate buffered saline) were added to the plates at a final DMSO concentration of 0.1%. In order to measure compound synergy with a co-corrector, 3 μM co-corrector (3-[(2R,4R)-4-({[1-(2,2-difluoro-1,3-benzodioxol-5-yl)cyclopropyl]carbonyl}amino)-7-methoxy-3,4-dihydro-2H-chromen-2-yl]benzoic acid) was added along with test compounds. All compound plates contained negative controls (DMSO) and positive controls (3 μM co-corrector). Cell plates were incubated at 33° C., 5% CO2 for 20 hours. On day five, the cells were washed five times with phosphate-buffered saline, and HRP activity was assayed by the addition of 50 μL/well of HRP substrate (SuperSignal™ West Pico Chemiluminescent Substrate, Thermo Scientific; 34080). After incubation for 15 minutes in the dark, the chemiluminescence was measured using a plate reader (EnVision®, Perkin Elmer). Raw data were normalized to percentage activity values using the equation: 100×(Sample−Negative control)/(Positive control−Negative Control).

[1] = HRP-tagged ΔF508-CFTR CFBE cells, in the presence of 3 μM co-corrector
[2] = HRP-tagged ΔF508-CFTR CFBE cells, in the presence of 3 μM co-corrector, read-out: EC50

T1 sequence (P13569 with tags, fused parts or gaps DEL508-508): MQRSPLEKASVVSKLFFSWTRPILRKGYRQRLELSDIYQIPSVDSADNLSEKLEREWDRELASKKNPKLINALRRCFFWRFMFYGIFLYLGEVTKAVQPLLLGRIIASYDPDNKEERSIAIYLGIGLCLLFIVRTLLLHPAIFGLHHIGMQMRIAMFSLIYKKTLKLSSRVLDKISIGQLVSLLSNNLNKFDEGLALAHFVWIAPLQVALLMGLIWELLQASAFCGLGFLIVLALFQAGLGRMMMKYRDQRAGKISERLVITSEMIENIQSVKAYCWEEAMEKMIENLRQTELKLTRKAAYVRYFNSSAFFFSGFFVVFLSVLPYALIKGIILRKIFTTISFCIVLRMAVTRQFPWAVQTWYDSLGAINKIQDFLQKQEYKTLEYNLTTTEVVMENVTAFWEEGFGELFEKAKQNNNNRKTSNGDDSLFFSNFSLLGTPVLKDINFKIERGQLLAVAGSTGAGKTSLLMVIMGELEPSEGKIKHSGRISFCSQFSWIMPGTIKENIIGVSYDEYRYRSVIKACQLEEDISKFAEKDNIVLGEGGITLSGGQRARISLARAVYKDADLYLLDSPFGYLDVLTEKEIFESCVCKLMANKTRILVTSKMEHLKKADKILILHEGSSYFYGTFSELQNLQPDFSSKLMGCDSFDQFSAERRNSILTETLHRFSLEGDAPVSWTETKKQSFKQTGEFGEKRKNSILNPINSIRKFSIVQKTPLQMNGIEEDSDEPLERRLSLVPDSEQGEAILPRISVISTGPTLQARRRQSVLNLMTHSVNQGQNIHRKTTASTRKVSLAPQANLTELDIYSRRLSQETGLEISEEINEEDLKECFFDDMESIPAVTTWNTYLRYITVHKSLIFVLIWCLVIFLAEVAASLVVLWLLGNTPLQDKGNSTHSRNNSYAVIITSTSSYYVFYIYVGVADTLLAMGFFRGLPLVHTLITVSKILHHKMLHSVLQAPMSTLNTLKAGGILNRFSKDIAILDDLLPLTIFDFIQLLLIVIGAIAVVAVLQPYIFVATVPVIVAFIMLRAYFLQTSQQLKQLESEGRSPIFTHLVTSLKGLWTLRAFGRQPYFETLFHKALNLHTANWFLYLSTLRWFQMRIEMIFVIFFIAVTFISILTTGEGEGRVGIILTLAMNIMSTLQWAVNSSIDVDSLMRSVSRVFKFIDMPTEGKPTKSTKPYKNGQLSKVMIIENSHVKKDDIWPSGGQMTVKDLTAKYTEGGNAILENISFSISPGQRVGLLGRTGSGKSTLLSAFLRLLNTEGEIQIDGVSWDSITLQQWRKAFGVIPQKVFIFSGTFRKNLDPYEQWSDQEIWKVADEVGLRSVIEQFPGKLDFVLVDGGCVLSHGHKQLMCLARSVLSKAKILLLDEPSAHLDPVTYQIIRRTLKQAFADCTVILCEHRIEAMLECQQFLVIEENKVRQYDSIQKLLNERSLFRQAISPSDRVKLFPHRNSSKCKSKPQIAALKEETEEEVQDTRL

Structure (SMILES) | % Activation [1] [%] | EC50 [2] [nM] | EC50 [nM]
COCC1(F)CCN(c2cc(C(=O)NS(C)(=O)=O)nc3c2c(C(C)C)nn3-c2ccc(F)cc2)CC1 [Compound 345, 4-[4-fluoro-4-(methoxymethyl)piperidin-1-yl]-1-(4-fluorophenyl)-N-(methanesulfonyl)-3-(propan-2-yl)-1H-pyrazolo[3,4-b]pyridine-6-carboxamide] | 301.1 | 223 | 
O=C(NS(=O)(=O)N1CCOCC1)c1cc(OCC2CCOCC2)c2c(C3CCC3)nn(-c3ccccc3)c2n1 [Compound 358, 3-cyclobutyl-N-(morpholine-4-sulfonyl)-4-[(oxan-4-yl)methoxy]-1-phenyl-1H-pyrazolo[3,4-b]pyridine-6-carboxamide] | 242.33 | 89.9 | 
O=C(NS(=O)(=O)N1CCC(N2CCOCC2)CC1)c1cc(OCC2CCOCC2)c2c(C3CCC3)nn(-c3ccccc3)c2n1 [Compound 359, 3-cyclobutyl-N-[4-(morpholin-4-yl)piperidine-1-sulfonyl]-4-[(oxan-4-yl)methoxy]-1-phenyl-1H-pyrazolo[3,4-b]pyridine-6-carboxamide] | 236.25 | 299 | 
CN1CCN(C(=O)C2CCN(S(=O)(=O)NC(=O)c3cc(OCC4CCOCC4)c4c(C5CCC5)nn(-c5ccccc5)c4n3)CC2)CC1 [Compound 360, 3-cyclobutyl-N-[4-(4-methylpiperazine-1-carbonyl)piperidine-1-sulfonyl]-4-[(oxan-4-yl)methoxy]-1-phenyl-1H-pyrazolo[3,4-b]pyridine-6-carboxamide] | 182.8 | 101 | 
CN1CCN(S(=O)(=O)NC(=O)c2cc(OCC3CCOCC3)c3c(C4CCC4)nn(-c4ccccc4)c3n2)CC1 [Compound 361, 3-cyclobutyl-N-(4-methylpiperazine-1-sulfonyl)-4-[(oxan-4-yl)methoxy]-1-phenyl-1H-pyrazolo[3,4-b]pyridine-6-carboxamide] | 204.1 | 181 | 
CC(C)(C)S(=O)(=O)NC(=O)c1cc(OCC2CCOCC2)c2c(C3CCC3)nn(-c3ccccc3)c2n1 [Compound 362, 3-cyclobutyl-N-(2-methylpropane-2-sulfonyl)-4-[(oxan-4-yl)methoxy]-1-phenyl-1H-pyrazolo[3,4-b]pyridine-6-carboxamide] | 195.75 | 414 | 
C#CCCS(=O)(=O)NC(=O)c1cc(-c2ccc(N=[N+]=[N-])cc2)c2c(C(C)C)nn(-c3cccc(N(C)C)c3)c2n1 [Compound 363, 4-(4-azidophenyl)-N-(but-3-yne-1-sulfonyl)-1-[3-(dimethylamino)phenyl]-3-(propan-2-yl)-1H-pyrazolo[3,4-b]pyridine-6-carboxamide] | 415.8 | 116 | 
COCC1CCN(c2cc(C(=O)NS(=O)(=O)CC#N)nc3c2c(C2CCC2)nn3-c2ccccc2)CC1 [Compound 364, N-(cyanomethanesulfonyl)-3-cyclobutyl-4-[4-(methoxymethyl)piperidin-1-yl]-1-phenyl-1H-pyrazolo[3,4-b]pyridine-6-carboxamide] | 575 | 553 | 
COCC1CCN(c2cc(C(=O)NS(=O)(=O)CCn3cccn3)nc3c2c(C2CCC2)nn3-c2ccccc2)CC1 [Compound 372, 3-cyclobutyl-4-[4-(methoxymethyl)piperidin-1-yl]-1-phenyl-N-[2-(1H-pyrazol-1-yl)ethanesulfonyl]-1H-pyrazolo[3,4-b]pyridine-6-carboxamide] | 615.7 | 2560 | 
CC(C)c1nn(-c2ccc(F)cc2)c2nc(C(=O)NS(C)(=O)=O)cc(N3CCC(N4CCOCC4)CC3)c12 [Compound 411, 1-(4-fluorophenyl)-N-(methanesulfonyl)-4-[4-(morpholin-4-yl)piperidin-1-yl]-3-(propan-2-yl)-1H-pyrazolo[3,4-b]pyridine-6-carboxamide] | 505 |  | 478
CC(C)c1nn(-c2ccc(F)cc2)c2nc(C(=O)NS(=O)(=O)N(C)C)cc(N3CCC(N4CCOCC4)CC3)c12 [Compound 412, N-(dimethylsulfamoyl)-1-(4-fluorophenyl)-4-[4-(morpholin-4-yl)piperidin-1-yl]-3-(propan-2-yl)-1H-pyrazolo[3,4-b]pyridine-6-carboxamide] | 436.4 |  | 201
CCS(=O)(=O)NC(=O)c1cc(N2CCC(N3CCOCC3)CC2)c2c(C(C)C)nn(-c3ccc(F)cc3)c2n1 [Compound 413, N-(ethanesulfonyl)-1-(4-fluorophenyl)-4-[4-(morpholin-4-yl)piperidin-1-yl]-3-(propan-2-yl)-1H-pyrazolo[3,4-b]pyridine-6-carboxamide] | 455.9 |  | 90.6
CC(C)c1nn(-c2ccc(F)cc2)c2nc(C(=O)NS(=O)(=O)C3CC3)cc(N3CCC(N4CCOCC4)CC3)c12 [Compound 414, N-(cyclopropanesulfonyl)-1-(4-fluorophenyl)-4-[4-(morpholin-4-yl)piperidin-1-yl]-3-(propan-2-yl)-1H-pyrazolo[3,4-b]pyridine-6-carboxamide] | 508.3 |  | 159
CCS(=O)(=O)NC(=O)c1cc(N2CCC(N3CCCCC3)CC2)c2c(C3CCC3)nn(-c3ccccc3)c2n1 [Compound 427, 4-([1,4′-bipiperidin]-1′-yl)-3-cyclobutyl-N-(ethanesulfonyl)-1-phenyl-1H-pyrazolo[3,4-b]pyridine-6-carboxamide] | 419.5 |  | 162
O=C(NS(=O)(=O)C1CC1)c1cc(N2CCC(N3CCCCC3)CC2)c2c(C3CCC3)nn(-c3ccccc3)c2n1 [Compound 428, 4-([1,4′-bipiperidin]-1′-yl)-3-cyclobutyl-N-(cyclopropanesulfonyl)-1-phenyl-1H-pyrazolo[3,4-b]pyridine-6-carboxamide] | 434.7 |  | 77.3
CC(C)Oc1nn(C2CCCCC2)c2nc(C(=O)NS(=O)(=O)N(C)C)cc(-c3ccc(CN4CCCCC4)cc3)c12 [Compound 443, 1-cyclohexyl-N-(dimethylsulfamoyl)-4-{4-[(piperidin-1-yl)methyl]phenyl}-3-[(propan-2-yl)oxy]-1H-pyrazolo[3,4-b]pyridine-6-carboxamide] | 332.5 | 184 | 
CCS(=O)(=O)NC(=O)c1cc(N2CCC(C(C)N3CCOCC3)CC2)c2c(C3CCC3)nn(-c3ccc(F)cc3)c2n1 (stereo not shown) [Compound 446, 3-cyclobutyl-N-(ethanesulfonyl)-1-(4-fluorophenyl)-4-{4-[1-(morpholin-4-yl)ethyl]piperidin-1-yl}-1H-pyrazolo[3,4-b]pyridine-6-carboxamide] | 669.9 | 77.4 | 
O=C(NS(=O)(=O)C1CCOC1)c1cc(-c2ccc(CN3CCOCC3)cc2)c2c(OC3CCC3)nn(C3CCCCC3)c2n1 (stereo not shown) [Compound 467, 3-(cyclobutyloxy)-1-cyclohexyl-4-{4-[(morpholin-4-yl)methyl]phenyl}-N-(oxolane-3-sulfonyl)-1H-pyrazolo[3,4-b]pyridine-6-carboxamide] | 229.15 | 270 | 
O=C(NS(=O)(=O)C1CCOC1)c1cc(N2CCN(c3ccncc3)CC2)c2c(C3CCC3)nn(C3CCCCC3)c2n1 (stereo not shown) [Compound 468, 3-cyclobutyl-1-cyclohexyl-N-(oxolane-3-sulfonyl)-4-[4-(pyridin-4-yl)piperazin-1-yl]-1H-pyrazolo[3,4-b]pyridine-6-carboxamide] | 443.05 | 524 | 
CC(C)N1CCN(c2ccc(-c3cc(C(=O)NS(=O)(=O)N(C)C)nc4c3c(C3CCC3)nn4C3CCCCC3)cc2)CC1 [Compound 547, 3-cyclobutyl-1-cyclohexyl-N-(dimethylsulfamoyl)-4-{4-[4-(propan-2-yl)piperazin-1-yl]phenyl}-1H-pyrazolo[3,4-b]pyridine-6-carboxamide] | 372.95 | 349 | 
